Reference: patent US11395867B2, “Degradable removable implant for the sustained release of an active compound” (Janssen Sciences Ireland Unlimited Company, priority 2009, dated 2022)
“And” between values parts separate entries of the source, which are not always exact repeats. Equal values may be shown once.

Tests used:
[1] = In vivo testing of laser drilled melt extruded tube containing two sets of microparticles, plasma concentrations; details: rat, subcutaneous laser drilled extruded tube implant, TMC278 139 mg/kg, compound 1 64 mg/kg, individual animals 1-4
Method: Tubes with inner diameter of 4.5 mm were extruded from polydioxanone (IVHFIP=1.99 dl/g) using a ¾ inch single screw extruder fitted with a tube die. The dimensions of the tube were monitored using an in-line laser diameter measuring system and maintained using a puller. Following the extrusion the tubes were laser drilled. In preparation for the laser drilling a mask design was prepared that located the holes 260 microns apart from one another. Scanning electron microscopy was used to size the inner and outer diameter of the holes. […] The microparticles were prepared as described in Example 9. Approximately 133 mg of the microparticle mixture was introduced into the tubes.
(§1) The prepared tubes were implanted into the subcutaneous space on the back of four male Sprague-Dawley rats weighing between 250-350 grams. The dose of TMC278 was 139 mg/kg and the dose of compound 1 was 64 mg/kg. The tail vein was sampled at pre-determined time points. Blood samples were immediately centrifuged to extract the plasma, and plasma was analyzed for compound 1 and TMC278 by LC/MS/MS. The lower limit of quantitation for TMC278 and compound 1 was 0.4 ng/ml and 2.0 ng/ml, respectively.

[2] = In vivo testing of laser drilled melt extruded tube containing two sets of microparticles formulated with F108, plasma concentrations; design: species or system Sprague-Dawley rats; details: rat, subcutaneous laser drilled extruded tube implant, TMC278 109 mg/kg, compound 1 78 mg/kg, individual animals 1-4
Method: The laser drilled melt extruded tube was prepared as described above in example 10. The microparticles were prepared by the spinning disc method using a 3% (w/w) polymer/acetone solution. Two sets of microparticles were prepared. The target composition of one set was 70% (w/w) TMC278, 20% (w/w) PLGA 50/50 (Lakeshore Biomaterials IVHFIP=0.79 dl/g), and 10% (w/w) F108 (BASF). The target composition of the other set of microparticles was 70% (w/w) compound 1, 20% (w/w) PLGA 50/50 (Lakeshore Biomaterials IVHFIP=0.18 dl/g), and 10% (w/w) F108. The F108 was added to the polymer solution.
The size range of the microparticles was determined by randomly selecting a sample of microparticles and placing them on the stage of an optical microscope and using a ruler to measure the various sizes of the microparticles in the randomly selected sample. The size range of the TMC278 and compound 1 microparticles was 10-100 microns and 20-100 microns, respectively. Microparticles were mixed as described in example 9. Approximately 133 mg of the microparticle mixture was introduced into tubes using a spatula to transfer the contents.
as §1, with “TMC278” for “TMC278 was 139 mg/kg”, “and” for “and the dose of”, “109 mg/kg and 78 mg/kg, respectively.” for “64 mg/kg.”, “plasma,” for “plasma, and”, “2” for “2.0”

[3] = Solubility experiments of TMC278 in water; format: physicochemical
Excerpt: The solubility of TMC278 dramatically increases at pH=2. […] The use of an acidic binder gel that can effectively lower pH, can increase the rate of elution of TMC278 from the polymer matrix. Increasing the concentration of the acidic polymer in the gel can depress the pH even further (Table 1).

[4] = In vivo testing of electrostatically spun tube containing two sets of microparticles, plasma concentrations; design: species or system Sprague-Dawley rats; details: rat, subcutaneous electrospun tube implant, TMC278 139 mg/kg, compound 1 64 mg/kg, individual animals 1-4
Method: Tubes were electrostatically spun from a 100 mg/ml polydioxanone (IVHFIP=1.99 dl/g) hexafluoroisopropanol solution. A 4 mm mandrel was used to provide a consistent inner diameter of 4 mm. The rotational speed of the mandrel was 400 rpm, the charging voltage range was 20/−10 kV, and the pump flow rate was 10 ml/hour. The resulting wall thickness was 500 microns. Fiber diameters were 1-2 microns and the average pore size formed from the network of fibers was 20 microns as determined by Scanning Electron Microscopy.
The microparticles were prepared by the spinning disc method using a polymer/acetone solution with a concentration ranging from 3-4% (w/w). Two sets of microparticles were prepared. The target composition of one set was 70% (w/w) TMC278 and 30% (w/w) PLGA 50/50 (Lakeshore Biomaterials IVHFIP=0.79 dl/g). The target composition of the other set of microparticles was 70% (w/w) of compound 1 (=compound 14 of WO01/25240) and 30% (w/w) PLGA 50/50 (Lakeshore Biomaterials IVHFIP=0.18 dl/g). This compound 1 has the following structure and will be referred to hereinafter as compound 1:
Approximately 133 mg of the microparticle mixture was introduced into the electrostatically prepared tubes using a spatula.
as §1, with “plasma,” for “plasma, and”, “quantitation was 0.4 ng/ml and 2 ng/ml” for “quantitation”, “1,” for “1 was 0.4 ng/ml and 2.0 ng/ml,”

[5] = male, Sprague-Dawley, plasma, subcutaneous, 7 day
[6] = male, Sprague-Dawley, plasma, subcutaneous, 14 day

Cc1cc(/C=C/C#N)cc(C)c1Nc1ccnc(Nc2ccc(C#N)cc2)n1 [TMC278, rilpivirine]
plasma concentration ([1]; 3 hour): 0.551 ng/mL and 1.42 ng/mL and 2.51 ng/mL and 1.61 ng/mL
plasma concentration ([1]; 1 day): <0.4 ng/ml (2×) and 0.432 ng/ml and 1.22 ng/ml
plasma concentration ([1]; 3 day): <0.4 ng/ml (3×) and 1.14 ng/ml
plasma concentration ([1]; 7 day): 0.4 ng/mL and 0.695 ng/mL and <0.4 ng/mL
plasma concentration ([1]; 14 day): <0.4 ng/mL and 0.425 ng/mL and 0.456 ng/mL
plasma concentration ([1]; 28 day): <0.4 ng/mL and 0.451 ng/mL and 1.36 ng/mL and 0.773 ng/mL
plasma concentration ([1]; 35 day): <0.4 ng/mL and 0.403 ng/mL and 2.11 ng/mL and 0.881 ng/mL
concentration at 7 day [1, 5]: < 0.4 ng/mL
concentration at 14 day [1, 6]: < 0.4 ng/mL
plasma concentration ([2]; 3 hour): 2.12 ng/mL and 1.40 ng/mL and 2.42 ng/mL and 1.02 ng/mL
plasma concentration ([2]; 1 day): 0.797 ng/mL and 0.522 ng/mL and 0.939 ng/mL and <0.4 ng/mL
plasma concentration ([2]; 3 day): <0.4 ng/ml (2×) and 0.521 ng/ml
plasma concentration ([2]; 7 day): <0.4 ng/ml (2×) and 0.405 ng/ml
plasma concentration ([2]; 14 day): <0.4 ng/mL and 0.478 ng/mL and 0.664 ng/mL
plasma concentration ([2]; 28 day): 2.13 ng/mL and 0.539 ng/mL and 1.13 ng/mL and 2.19 ng/mL
plasma concentration ([2]; 35 day): 2.17 ng/mL and 0.744 ng/mL and 1.48 ng/mL and 2.48 ng/mL
concentration at 3 day ([2]; male, Sprague-Dawley, plasma, 3 day): 0.485 ng/mL
concentration at 7 day ([2]; male, Sprague-Dawley, plasma, 7 day): < 0.4 ng/mL
concentration at 14 day ([2]; male, Sprague-Dawley, plasma, 14 day): 0.6 ng/mL
solubility in water at pH of 2 relative to pH of 7 ([3]; pH 2 vs pH 7): 950 times
solubility in water ([3]; water): extreme insolubility
plasma concentration ([4]; 3 hour): 0.562 ng/mL and 0.462 ng/mL and 0.576 ng/mL
plasma concentration ([4]; 1 day): 0.441 ng/mL and <0.4 ng/mL and 0.575 ng/mL
plasma concentration ([4]; 3 day): 0.518 ng/mL and <0.4 ng/mL and 0.549 ng/mL
plasma concentration ([4]; 7 day): 0.645 ng/ml and <0.4 ng/ml (2×)
plasma concentration ([4]; 14 day): <0.4 ng/ml (2×) and 0.424 ng/ml
plasma concentration ([4]; 28 day): <0.4 ng/ml (2×) and 0.475 ng/ml
plasma concentration ([4]; 35 day): 0.527 ng/mL and 0.769 ng/mL and 0.400 ng/mL
concentration at 3 h ([4]; male, Sprague-Dawley, plasma, subcutaneous, 3 hour): 0.505 ng/mL
concentration at 1 day ([4]; male, Sprague-Dawley, plasma, subcutaneous, 1 day): < 0.4 ng/mL
concentration at 3 day ([4]; male, Sprague-Dawley, plasma, subcutaneous, 3 day): < 0.4 ng/mL
concentration at 7 day [4, 5]: 0.421 ng/mL
concentration at 14 day [4, 6]: < 0.4 ng/mL
concentration at 28 day ([4]; male, Sprague-Dawley, plasma, subcutaneous, 28 day): < 0.4 ng/mL
concentration at 35 day ([4]; male, Sprague-Dawley, plasma, subcutaneous, 35 day): < 0.4 ng/mL
